Measured values from BigSolDB 2.1.

O=c1[nH]c2ccccc2n1CCCN1CCC(n2c(=O)[nH]c3cc(Cl)ccc32)CC1
solubility (mole fraction)
Conditions | 278.15 K | 283.15 K | 288.15 K | 293.15 K | 298.15 K | 303.15 K | 308.15 K | 313.15 K | 318.15 K
in DMAc | 0.000805 | 0.000971 | 0.00116 | 0.00136 | 0.00158 | 0.00182 | 0.00208 | 0.00234 | 0.00262
in DMF | 7.44e-05 | 9.91e-05 | 0.000131 | 0.00017 | 0.000223 | 0.000282 | 0.000369 | 0.000471 | 0.000575
in DMSO | 0.000283 | 0.00034 | 0.000408 | 0.000489 | 0.000584 | 0.000698 | 0.000832 | 0.00099 | 0.00118
in acetonitrile | 1.2e-07 | 1.85e-07 | 2.54e-07 | 3.43e-07 | 4.6e-07 | 6.68e-07 | 8.73e-07 | 1.07e-06 | 1.46e-06
in ethanol | 8.55e-06 | 1.09e-05 | 1.47e-05 | 1.86e-05 | 2.28e-05 | 2.93e-05 | 3.6e-05 | 4.53e-05 | 5.35e-05
in ethylene glycol | 1.11e-05 | 1.43e-05 | 1.84e-05 | 2.21e-05 | 2.93e-05 | 3.47e-05 | 4.43e-05 | 5.56e-05 | 6.6e-05
in isobutanol | 1.05e-05 | 1.35e-05 | 1.8e-05 | 2.23e-05 | 2.83e-05 | 3.67e-05 | 4.58e-05 | 5.68e-05 | 7.17e-05
in isopropanol | 7.95e-06 | 9.92e-06 | 1.45e-05 | 1.84e-05 | 2.27e-05 | 2.74e-05 | 3.45e-05 | 4.33e-05 | 5.42e-05
in methanol | 8.19e-06 | 9.89e-06 | 1.21e-05 | 1.6e-05 | 2.07e-05 | 2.56e-05 | 3.17e-05 | 4.03e-05 | 4.9e-05
in n-butanol | 1.23e-05 | 1.64e-05 | 2.19e-05 | 2.85e-05 | 3.66e-05 | 4.45e-05 | 5.47e-05 | 7.02e-05 | 8.57e-05
in n-propanol | 1.18e-05 | 1.45e-05 | 1.9e-05 | 2.55e-05 | 3.25e-05 | 4.17e-05 | 5.05e-05 | 6.43e-05 | 7.85e-05
in water | 8.77e-08 | 1.05e-07 | 1.38e-07 | 1.75e-07 | 2.22e-07 | 2.76e-07 | 3.35e-07 | 4.16e-07 | 5.11e-07
